Laboratory results published in patent US20260055097A9, “NRF2 PROTEIN DEGRADERS” (Ganymede Oncology, Inc., priority 2022, published 2026).
Like-named read-outs stand apart in the source and are kept apart here.

Experiments:
Assay type in all cases: cell-based
LK-2 = assay: Cancer cell viability, LK-2 (CellTiter-Glo); conditions: Homo sapiens, LK-2, 72 h, LK-2 cells, 3 days, read-out: Cellular IC50 (μM) LK-2
Method: (§1) Representative Compounds of the Disclosure were tested in A549 (Vendor: ATCC; Cat #CCL-185; Description: lung, carcinoma) and/or LK-2 (Vendor: Riken; Cat #RCB1970; Description: lung, squamous cell carcinoma) cellular viability assays according to the following general protocol. • 1. Observed the cells under microscope. • 2. Aspirated the media and added 5 mL trypsin and incubate for 3 mins. • 3. Added 10 mL fresh media and harvested all the cells in to 15 mL tubes. • 4. Centrifuged the cells at 1000 rpm for 5 mins. • 5. Re-suspended the cells with 11 mL media and took 1 mL to determine the cell number and viability. • 6. Prepared cells suspension at 20 K/mL (A549) or 35 K/mL (LK-2) • 7. Seeded the cells into 96-well plate and incubated for overnight. • 8. Added compounds into each well with a HPD300 machine (nine three-fold dilutions typically starting at 30 µM final concentration) and incubated for 3 days. • 9. After 3 days, took out the plates from the incubator and observed the cells under microscope. • 10. Passed a film at the bottom of the plates. • 11. Equilibrated the plate and its contents at room temperature for approximately 30 minutes. • 12. Thawed the CellTiter-Glo® Buffer and equilibrated to room temperature prior to use. • 13. Equilibrated the lyophilized CellTiter-Glo® Substrate to room temperature prior to use. • 14. Transferred 100 ml of CellTiter-Glo® Buffer into the amber bottle containing CellTiter-Glo® Substrate to reconstituted the lyophilized enzyme/substrate mixture. • 15. Mixed by gently vortexing, swirling or inverting the contents to obtain a homogeneous solution. • 16. Added 100 μL CellTiter-Glo® Reagent into each well • 17. Mixed contents for 15 minutes on an orbital shaker to induce cell lysis. • 18. Recorded luminescence with EnSpire machine. • 19. Passed the raw data into the file and analyzed the data with XLfit software.

A549 = assay: Cancer cell viability, A549 (CellTiter-Glo); conditions: Homo sapiens, 72 h, A549 cells, 3 days, read-out: Cellular IC50 (μM) A549
Method: as §1, with “Added compounds into each well with a HPD300 machine (nine three-fold dilutions typically starting at 30 µM final concentration) and incubated for 3 days. • 9.” left out

Nrf2 = biological target: T1, Nrf2 (Homo sapiens, UniProt Q16236); assay: Nrf2 degradation in A549 HiBiT-Nrf2 cells, Nano-Glo HiBiT lytic detection (HiBiT readout); set-up: host or cells: A549 HiBiT-Nrf2 cells (engineered line bought from Promega)
T1 sequence (Q16236 1-605): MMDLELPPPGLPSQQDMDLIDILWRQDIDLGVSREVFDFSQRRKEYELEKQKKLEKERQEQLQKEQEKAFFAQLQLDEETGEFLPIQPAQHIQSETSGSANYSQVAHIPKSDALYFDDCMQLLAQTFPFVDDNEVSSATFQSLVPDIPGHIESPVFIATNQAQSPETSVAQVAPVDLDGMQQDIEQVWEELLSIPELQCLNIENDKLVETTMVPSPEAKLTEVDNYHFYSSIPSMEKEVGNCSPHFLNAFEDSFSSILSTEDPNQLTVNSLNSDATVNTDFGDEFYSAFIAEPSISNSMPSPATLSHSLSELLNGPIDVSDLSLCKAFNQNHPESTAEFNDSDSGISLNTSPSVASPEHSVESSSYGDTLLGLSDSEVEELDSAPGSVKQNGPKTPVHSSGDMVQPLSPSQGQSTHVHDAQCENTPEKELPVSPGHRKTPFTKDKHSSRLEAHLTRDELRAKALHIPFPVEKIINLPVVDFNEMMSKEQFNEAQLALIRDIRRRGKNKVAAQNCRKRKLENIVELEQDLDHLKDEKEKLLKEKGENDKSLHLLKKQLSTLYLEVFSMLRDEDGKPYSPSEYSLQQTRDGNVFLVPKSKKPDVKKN
Method: A549 HiBiT-Nrf2 cells (Promega, Cat. No. CS3023219) were seeded into 384-well plates at cell density of 5,000 cells/well in 40 μL of cell culture medium (Ham's F-12 Nutrient Mix supplemented with 10% FBS and 1% antibiotic-antimycotic).
The next day, cells were treated with representative Compounds of the Disclosure and incubated for 6 h and 20 h at 37° C., 5% CO2. Staurosporine was used as a control.
At the end of incubation Nrf2 degradation (HiBiT readout) and cell viability (CellTiter-Glo readout) were determined. For HiBiT readout, Nano-Glo HiBiT Reagent mix (Promega, Cat. No. N3050) was added to wells, plates were incubated 2 min on an orbital shaker and incubated at room temperature in the dark for additional 30 minutes. At the end of incubation luminescence was measured using ultrasensitive luminescence mode (Envision, Perkin Elmer).

[1] = 6 h, read-out: DC50 (nM) at 6 h
[2] = 20 h, read-out: DC50 (nM) at 20 h

SMILES | IC50 (LK-2) [µM] | IC50 (A549) [µM] | DC50 (Nrf2; [1]) [nM] | DC50 (Nrf2; [2]) [nM]
Cc1sc(C(=O)Nc2cccc(OCCOCCNc3ccc4c(c3)C(=O)N(C3CCC(=O)NC3=O)C4=O)c2)nc1-c1ccc2c(c1)CCN2C(=O)C1CC1 (centres unmarked) [Cpd. No. 39, 4-(1-(cyclopropanecarbonyl)indolin-5-yl)-N-(3-(2-(2-((2-(2,6-dioxopiperidin-3-yl)-1,3-dioxoisoindolin-5-yl)amino)ethoxy)ethoxy)phenyl)-5-methylthiazole-2-carboxamide] | > 30 | > 30 |  | 
Cc1ccccc1C(=O)N1CCc2cc(-c3nc(NC(=O)Cc4cccc(OCCCN5CCN(c6ccc7c(c6)C(=O)N(C6CCC(=O)NC6=O)C7=O)CC5)c4)sc3C)ccc21 (centres unmarked) [compound 25, 2-(3-(3-(4-(2-(2,6-dioxopiperidin-3-yl)-1,3-dioxoisoindolin-5-yl)piperazin-1-yl)propoxy)phenyl)-N-(5-methyl-4-(1-(2-methylbenzoyl)indolin-5-yl)thiazol-2-yl)acetamide] | > 30 | > 30 |  | 
Cc1sc(NC(=O)Cc2cccc(OCCOCCNc3ccc4c(c3)C(=O)N(C3CCC(=O)NC3=O)C4=O)c2)nc1-c1ccc2c(c1)CCN2C(=O)C1CC1 (centres unmarked) [Cpd. No. 22, N-(4-(1-(cyclopropanecarbonyl)indolin-5-yl)-5-methylthiazol-2-yl)-2-(3-(2-(2-((2-(2,6-dioxopiperidin-3-yl)-1,3-dioxoisoindolin-5-yl)amino)ethoxy)ethoxy)phenyl) acetamide] | 0.06 | 0.3 |  | 
Cc1ccccc1C(=O)N1CCc2cc(-c3nc(NC(=O)Cc4cccc(OCCCNc5cccc6c5C(=O)N(C5CCC(=O)NC5=O)C6=O)c4)sc3C)ccc21 (centres unmarked) [Cpd. No. 6, 2-(3-(3-((2-(2,6-dioxopiperidin-3-yl)-1,3-dioxoisoindolin-4-yl)amino)propoxy)phenyl)-N-(5-methyl-4-(1-(2-methylbenzoyl)indolin-5-yl)thiazol-2-yl)acetamide] | > 30 | > 30 |  | 
Cc1sc(NC(=O)Cc2cccc(OCCCCNc3cccc4c3C(=O)N(C3CCC(=O)NC3=O)C4=O)c2)nc1-c1ccc2c(c1)CCN2C(=O)C1CC1 (centres unmarked) [Cpd. No. 65, N-(4-(1-(cyclopropanecarbonyl)indolin-5-yl)-5-methylthiazol-2-yl)-2-(3-(4-((2-(2,6-dioxopiperidin-3-yl)-1,3-dioxoisoindolin-4-yl)amino)butoxy)phenyl)acetamide] |  | 0.12 | < 300 | < 300
Cc1cnccc1C(=O)N1CCc2cc(-c3nc(NC(=O)Cc4cccc(OCCOCCNc5cccc6c5C(=O)N(C5CCC(=O)NC5=O)C6=O)c4)sc3C)ccc21 (centres unmarked) [Cpd. No. 77, 2-(3-(2-(2-((2-(2,6-dioxopiperidin-3-yl)-1,3-dioxoisoindolin-4-yl)amino)ethoxy)ethoxy)phenyl)-N-(5-methyl-4-(1-(3-methylisonicotinoyl)indolin-5-yl)thiazol-2-yl)acetamide] |  | 0.0077 | > 3000 | < 300
Cc1sc(NC(=O)Cc2cccc(OCCCCCNc3cccc4c3CN(C3CCC(=O)NC3=O)C4=O)c2)nc1-c1ccc2c(c1)CCN2C(=O)C1CC1 (centres unmarked) [Cpd. No. 69, N-(4-(1-(cyclopropanecarbonyl)indolin-5-yl)-5-methylthiazol-2-yl)-2-(3-((5-((2-(2,6-dioxopiperidin-3-yl)-1-oxoisoindolin-4-yl)amino)pentyl)oxy)phenyl)acetamide] |  | 0.18 | < 300 | < 300
Cc1sc(NC(=O)Cc2cccc(OCCCCCCNc3cccc4c3C(=O)N(C3CCC(=O)NC3=O)C4=O)c2)nc1-c1ccc2c(c1)CCN2C(=O)C1CC1 (centres unmarked) [Cpd. No. 66, N-(4-(1-(cyclopropanecarbonyl)indolin-5-yl)-5-methylthiazol-2-yl)-2-(3-((6-((2-(2,6-dioxopiperidin-3-yl)-1,3-dioxoisoindolin-4-yl)amino)hexyl)oxy)phenyl)acetamide] |  | 0.16 | 300 to 3000 | < 300
Cc1sc(NC(=O)Cc2cccc(OCCCCCCCCNc3cccc4c3C(=O)N(C3CCC(=O)NC3=O)C4=O)c2)nc1-c1ccc2c(c1)CCN2C(=O)C1CC1 (centres unmarked) [Cpd. No. 72, N-(4-(1-(cyclopropanecarbonyl)indolin-5-yl)-5-methylthiazol-2-yl)-2-(3-((8-((2-(2,6-dioxopiperidin-3-yl)-1,3-dioxoisoindolin-4-yl)amino)octyl)oxy)phenyl)acetamide] |  | 0.23 |  | > 3000
Cc1sc(NC(=O)Cc2cccc(OCCC3CCN(c4ccc5c(c4)C(=O)N(C4CCC(=O)NC4=O)C5=O)CC3)c2)nc1-c1ccc2c(c1)CCN2C(=O)C1CC1 (centres unmarked) [Cpd. No. 68, N-(4-(1-(cyclopropanecarbonyl)indolin-5-yl)-5-methylthiazol-2-yl)-2-(3-(2-(1-(2-(2,6-dioxopiperidin-3-yl)-1,3-dioxoisoindolin-5-yl)piperidin-4-yl)ethoxy)phenyl)acetamide] |  | > 30 |  | < 300
CC(=O)N1CCc2cc(-c3nc(NC(=O)Cc4cccc(OCCCCCNc5cccc6c5C(=O)N(C5CCC(=O)NC5=O)C6=O)c4)sc3C)ccc21 (centres unmarked) [Cpd. No. 67, N-(4-(1-acetylindolin-5-yl)-5-methylthiazol-2-yl)-2-(3-((5-((2-(2,6-dioxopiperidin-3-yl)-1,3-dioxoisoindolin-4-yl)amino)pentyl)oxy)phenyl)acetamide] |  | 0.75 | < 300 | < 300
COc1ccncc1C(=O)N1CCc2cc(-c3nc(NC(=O)Cc4cccc(OCCOCCNc5cccc6c5C(=O)N(C5CCC(=O)NC5=O)C6=O)c4)sc3C)ccc21 (centres unmarked) [Cpd. No. 80, 2-(3-(2-(2-((2-(2,6-dioxopiperidin-3-yl)-1,3-dioxoisoindolin-4-yl)amino)ethoxy)ethoxy)phenyl)-N-(4-(1-(4-methoxynicotinoyl)indolin-5-yl)-5-methylthiazol-2-yl)acetamide] |  | 0.075 | > 3000 | 
